Measured values reported in patent US20240293447A1, “Materials and Methods for Prevention and Treatment of Diarrhea and Inflammation in the Gastrointestinal Tract” (University of Florida Research Foundation, Inc., priority 2012, published 2024).

System: colitis in mice
Experiment: Colitis in mice (dextran sulfate sodium (DSS)-induced colitis) after CaSR-activating nutrients
Format: in vivo
Conditions: three-to-six-week-old mice received CaSR-activating nutrients (calcium, spermine, tryptophan, cinacalcet); figure legends only
Method: Briefly, three-to-six-week-old, pre-pubertal rats and mice (WT v. villin/cre-floxed CaSR) received antigens or CaSR-activating nutrients (calcium, spermine, tryptophan, and cinacalcet). After treatment, mice and rats were sacrificed, and epithelial barrier, cytokine expression, dendritic cell, T cell, and B cell activation, and response to inflammatory stress were determined (FIG. 2).

For C[C@@H](NCCCc1cccc(C(F)(F)F)c1)c1cccc2ccccc12 [cinacalcet], the effect on colitis was “can be used to treat colitis”.
